Laboratory results reported in patent US11078221B2, “Phosphorodiamidates and other phosphorus derivatives of fingolimod and related S1P receptor modulators” (UNIVERSITY COLLEGE CARDIFF CONSULTANTS LTD, priority 2017, dated 2021).

Assays:
Carboxypeptidase Y = target: T1, Carboxypeptidase Y (Saccharomyces cerevisiae, UniProt P00729); assay: Carboxypeptidase Y experiment (31P NMR); type: in vitro ADME
T1 construct: purchased Aldrich
T1 sequence (P00729 112-532): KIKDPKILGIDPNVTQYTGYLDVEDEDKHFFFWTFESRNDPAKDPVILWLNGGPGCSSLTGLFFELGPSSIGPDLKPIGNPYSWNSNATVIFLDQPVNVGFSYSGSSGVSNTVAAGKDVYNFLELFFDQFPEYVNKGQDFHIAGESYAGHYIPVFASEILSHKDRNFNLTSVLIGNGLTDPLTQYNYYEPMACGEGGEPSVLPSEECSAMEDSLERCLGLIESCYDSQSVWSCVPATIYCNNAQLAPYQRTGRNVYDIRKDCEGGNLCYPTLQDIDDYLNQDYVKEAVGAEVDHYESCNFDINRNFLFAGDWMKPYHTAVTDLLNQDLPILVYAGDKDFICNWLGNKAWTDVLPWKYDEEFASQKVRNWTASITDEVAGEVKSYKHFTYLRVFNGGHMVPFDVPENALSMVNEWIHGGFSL
Procedure: Blank in acetone d6 alone (No trizma): 1-2 mg of pentyl (2S)-2-[({2-amino-3-hydroxy-2-[2-(4-octylphenethyl]propoxy}(4-methoxyphenoxy) phosphoryl)amino]propanoate is dissolved in 150 μL of acetone d6 and the solution transferred into an NMR tube. The ^31P spectrum is recorded (16 scans are sufficient).
The sample in the NMR tube is diluted with 100 μL of Trizma buffer (pH=7.6). 0.1 mg of Carboxypeptidase Y (Aldrich) is then dissolved in 150 μL of Trizma buffer and the resulting solution is added to the NMR tube. ^31P NMR spectra are then recorded (512 scans, 600 sec delay, 20 experiments.) FIG. 1

[1] = Human serum stability (31P NMR); type: in vitro ADME
[2] = B95a cell lysate experiment (31P NMR); type: in vitro ADME; details: marmoset (cotton-top tamarin), B95a cell lysate; pH 7.6, 37 Celsius
Procedure: (§1) 4 mg of pentyl (2S)-2-[({2-amino-3-hydroxy-2-[2-(4-octylpheny)ethyl]propoxy}(4-methoxyphenoxy)phosphoryl)amino]propanoate are dissolved in a mixture of 150 μL of acetone d6 and 100 μL of trizma buffer (pH=7.6). The solution is transferred into an NMR tube. The ^31P spectrum is recorded (64 scans).
(§2) To the blank sample in the NMR tube 150 μL of B95a cell lysate (6.000.000 cell/m L) are added and then ^31P spectra are recorded at 37 Celsius (512 scans, 600 sec delay, 20 experiments).

B95a cell lysate = B95a cell lysate experiment (31P NMR); type: in vitro ADME; details: pH 7.6, 37 Celsius, FIG. 4
Procedure: as §1, §2

[3] = test system: human NPC1 mutant fibroblasts; details: cited from earlier work
NPC1 and −2 = details: mice, clinically relevant doses, cited from earlier work

| Structure (SMILES) | activation of the prodrug by the esterase (Carboxypeptidase Y; acetone d6 / Trizma buffer, Carboxypeptidase Y, FIG. 1) | half-life (Carboxypeptidase Y; yeast (Saccharomyces cerevisiae), Carboxypeptidase Y in Trizma buffer / acetone d6, acetone d6 / Trizma buffer pH 7.6, read-out: half-life in the presence of Carboxypeptidase Y) [h] | stability in human serum ([1]; DMSO d6 / Trizma buffer pH 7.6) | time over which the prodrug is stable in human serum ([1]; FIG. 3) | half-life at 10 mg/mL [2] [h] | processing in B95a cell lysate (B95a cell lysate) | accumulation of cholesterol and glycosphingolipids [3] | expression of NPC1 and −2 [3] | cholesterol (NPC1 and −2; SphK2-dependent) | expression of NPC1 and −2 (NPC1 and −2; brain and liver) |
| --- | --- | --- | --- | --- | --- | --- | --- | --- | --- | --- |
| CCCCCCCCc1ccc(CCC(N)(CO)COP(=O)(N[C@@H](C)C(=O)OCCCCC)Oc2ccc(OC)cc2)cc1 (stereo partly drawn) [pentyl (2S)-2-[({2-amino-3-hydroxy-2-[2-(4-octylphenyl)ethyl]propoxy}(4-methoxyphenoxy)phosphoryl)amino]propanoate] | rapidly activated by the esterase | 35.1 | stable in human serum | at least 665 minutes | 11.1 | processed to release the active monophosphorylated analogue | – | – | – | – |
| CCCCCCCCc1ccc(CCC(N)(CO)CO)cc1 [FTY720, Fingolimod] | – | – | – | – | – | – | significantly reduced the accumulation of cholesterol and glycosphingolipids | greatly increased expression of NPC1 and −2 | decreased cholesterol | increased expression of NPC1 and −2 in brain and liver |
